Measurements from patent publication US9649314B2, “Pyrimido[4,5-b]quinoline-4,5(3H,10H)-diones” (NOVARTIS AG, priority 2012, dated 2017).

System: CFTR-Y122X
Experiment: CFTR-Y122X assay (dual reporter isogenic Hek293 cell lines, Renilla luminescence readthrough)
Type: cell-based
Details: Homo sapiens, HEK293; for Emax / AC50: nonsense mutation suppression, 24 h incubation; for Emax: 100% = 14 mM paromomycin, tested up to 100 μM, read-out: Amax [%]; for Emax at 25 µM: measured at 25 μM compound concentration (footnote a), read-out: Amax [%]: % nonsense mutation suppression relative to paromomycin reference activity
Description: Activity of compounds of the present invention was examined in recombinant, dual reporter isogenic Hek293 cell lines (“CFTR-Y122X assay”). The engineered reporter constructs contained the 18 bp sequence stretch corresponding to a common Y122X PTC mutation in CFTR class I mutant patients (see Sermet-Gaudelus, BMC Medicine, 2007, 5(5)). Instead of a tyrosine (Y) in position 122 of the CFTR protein a TGA stop codon interrupts the open reading frame (Y122X) of the corresponding mRNA. This TGA stop codon triplet (followed by the pyrimidine base cytosine) is permissive to aminoglycoside mediated translational readthrough which served as positive control for high throughput screening. A corresponding TAA stop codon variant and a wildtype non mutated construct was used for confirmation and counter screening. The CFTR sequence was sandwiched between an eGFP reporter, and a triple myc tag sequence fused to a full length Renilla reporter. All sequences, including an intron containing one positioned pre-eGFP (b-globin intron) were cloned in frame. The corresponding expression constructs were stably expressed in the isogenic HEK-R4 cell host (Invitrogen Incorp.) and selected by blasticidin resistance. The isogenic integration of the construct minimizes gene dose effects and improves assay reproducibility. Stably integrated single cell derived clones were selected and characterized for aminoglycoside mediated readthrough. […] Readthrough of Y122X accumulates an intracellular localized fusion protein approximately 65.5 kDa in size as controlled by western blot analysis and immunofluorescence using an anti-renilla antibody. The eGFP reporter pre-PTC mutation serves as visual control for genetic stability of the screening clones and minimizes protein degradation of small fusion protein amounts. In the assay, compound concentration was 10 μM. In miniaturized 1536 well format 2000 cells were dispensed in 4 μl/well and incubated for 24 h at 37° C., 5% CO2. 40 nl compounds were placed on the cells with control wells containing 1 ul Paramomycin and 14.4 mM final concentration. Compounds were incubated for 24 h. Renilla Glo substrate (2.5 ul) was added and plates were centrifuged and processed for luminescence measurement using various readers. Activity calculation was done using the equation: A1 (%)=100*(S−NC)/(AC−NC) where AC, NC and S correspond to active controls (injection of Stimulation buffer=100% stimulation), neutral controls (buffer injection which Iloprost EC10) and screening samples (S). NC corresponds to 0% activity whereas AC is 100% activity (14 mM paromomycin). False positive artefacts were removed in confirmation and validation screening using the same assay format followed by counterscreening using the respective wildtype construct (w/o PTC mutation) cell model. Compounds were tested up to 100 μM compound concentration.

SMILES	Emax [%]	AC50 [µM]	Emax at 25 µM [%]
CCCn1c2ccccc2c(=O)c2c(=O)n(-c3ccccc3)c(C(C)C)nc21 [Example 1.44, 2-isopropyl-3-phenyl-10-propylpyrimido[4,5-b]quinoline-4,5(3H,10H)-dione]	118	15.2	
CC(C)c1nc2c(c(=O)c3ccccc3n2C)c(=O)n1C1CCCOC1 (stereo not shown) [Example 1.45, 2-isopropyl-10-methyl-3-(tetrahydro-2H-pyran-3-yl)pyrimido[4,5-b]quinoline-4,5(3H,10H)-dione]	389	4.7	
Cn1c2ccccc2c(=O)c2c(=O)n(-c3c(Cl)cccc3Cl)c(C3CCC3)nc21 [Example 1.46, 2-cyclobutyl-3-(2,6-dichlorophenyl)-10-methylpyrimido[4,5-b]quinoline-4,5(3H,10H)-dione]	25		
CCCCCCc1nc2c(c(=O)c3ccccc3n2C)c(=O)n1-c1ccccc1 [Example 1.47, 2-hexyl-10-methyl-3-phenylpyrimido[4,5-b]quinoline-4,5(3H,10H)-dione]	210	11.3	
CCCCCCCc1nc2c(c(=O)c3ccccc3n2C)c(=O)n1-c1ccccc1 [Example 1.48, 2-heptyl-10-methyl-3-phenylpyrimido[4,5-b]quinoline-4,5(3H,10H)-dione]	235	11.7	
C=CCn1c2ccccc2c(=O)c2c(=O)n(C3CCCC3)c(C(C)C)nc21 [Example 2.1, 10-allyl-3-cyclopentyl-2-isopropylpyrimido[4,5-b]quinoline-4,5(3H,10H)-dione]	102	21	
CC(C)c1nc2[nH]c3ccccc3c(=O)c2c(=O)n1C1CCCC1 [Example 2.2, 3-cyclopentyl-2-isopropylpyrimido[4,5-b]quinoline-4,5(3H,10H)-dione]	235	2.1	
CCn1c2ccccc2c(=O)c2c(=O)n(C3CCCC3)c(C(C)C)nc21 [Example 2.3, 3-cyclopentyl-10-ethyl-2-isopropylpyrimido[4,5-b]quinoline-4,5(3H,10H)-dione]	101	21.6	
CCC(C)c1nc2c(c(=O)c3ccccc3n2C)c(=O)n1C1CCCC1 (stereo not shown) [Example 2.4, 2-(sec-butyl)-3-cyclopentyl-10-methylpyrimido[4,5-b]quinoline-4,5(3H,10H)-dione]	258	6.1	
CC(C)Cc1nc2c(c(=O)c3ccccc3n2C)c(=O)n1C1CCCC1 [Example 2.5, 3-cyclopentyl-2-isobutyl-10-methylpyrimido[4,5-b]quinoline-4,5(3H,10H)-dione]	243	8.1	
Cn1c2ccccc2c(=O)c2c(=O)n(C3CCCC3)c(C(C)(C)C)nc21 [Example 2.6, 2-(tert-butyl)-3-cyclopentyl-10-methylpyrimido[4,5-b]quinoline-4,5(3H,10H)-dione]			127
CC(C)c1nc2c(c(=O)c3ccccc3n2C)c(=O)n1C1CCOCC1 [Example 2.7, 2-isopropyl-10-methyl-3-(tetrahydro-2H-pyran-4-yl)pyrimido[4,5-b]quinoline-4,5(3H,10H)-dione]			151
CC(C)c1nc2c(c(=O)c3ccccc3n2C)c(=O)n1N1CCCCC1 [Example 2.8, 2-isopropyl-10-methyl-3-(piperidin-1-yl)pyrimido[4,5-b]quinoline-4,5(3H,10H)-dione]	264	10.6	
COc1cccc2c(=O)c3c(=O)n(C4CCCC4)c(C(C)C)nc3n(C)c12 [Example 2.9, 3-cyclopentyl-2-isopropyl-9-methoxy-10-methylpyrimido[4,5-b]quinoline-4,5(3H,10H)-dione]	73	18.4	
COc1ccc2c(c1)c(=O)c1c(=O)n(C3CCCC3)c(C(C)C)nc1n2C [Example 2.10, 3-cyclopentyl-2-isopropyl-7-methoxy-10-methylpyrimido[4,5-b]quinoline-4,5(3H,10H)-dione]	25	25	
CC(C)c1nc2c(c(=O)c3cc(Cl)ccc3n2C)c(=O)n1C1CCCC1 [Example 2.11, 7-chloro-3-cyclopentyl-2-isopropyl-10-methylpyrimido[4,5-b]quinoline-4,5(3H,10H)-dione]	192	10.7	

SMILES	Emax [%]	AC50 [µM]	Emax at 25 µM [%]
CC(C)c1nc2c(c(=O)c3cc(Br)ccc3n2C)c(=O)n1C1CCCC1 [Example 2.12, 7-bromo-3-cyclopentyl-2-isopropyl-10-methylpyrimido[4,5-b]quinoline-4,5(3H,10H)-dione]			23
C#Cc1ccc2c(c1)c(=O)c1c(=O)n(C3CCCC3)c(C(C)C)nc1n2C [Example 2.13, 3-cyclopentyl-7-ethynyl-2-isopropyl-10-methylpyrimido[4,5-b]quinoline-4,5(3H,10H)-dione]	11		
CC(C)c1nc2c(c(=O)c3cc(C#N)ccc3n2C)c(=O)n1C1CCCC1 [Example 2.14, 3-cyclopentyl-2-isopropyl-10-methyl-4,5-dioxo-3,4,5,10-tetrahydropyrimido[4,5-b]quinoline-7-carbonitrile]	9	6.6	
CC(C)c1nc2c(c(=O)c3ccccc3n2C)c(=O)n1C1CCCC1 [Example 2.15, 3-cyclopentyl-2-isopropyl-10-methylpyrimido[4,5-b]quinoline-4,5(3H,10H)-dione]	275	3.8	
Cn1c2ccccc2c(=O)c2c(=O)n(C3CCCCC3)c(-c3ccccc3)nc21 [Example 2.16, 3-cyclohexyl-10-methyl-2-phenylpyrimido[4,5-b]quinoline-4,5(3H,10H)-dione]	312	8.6	
CCCCCc1nc2c(c(=O)c3ccccc3n2C)c(=O)n1C1CCCC1 [Example 2.18, 3-cyclopentyl-10-methyl-2-pentylpyrimido[4,5-b]quinoline-4,5(3H,10H)-dione]	222	9.9	
Cn1c2ccccc2c(=O)c2c(=O)n(C3CCCCC3)c(-c3cccc([N+](=O)[O-])c3)nc21 [Example 2.19, 3-cyclohexyl-10-methyl-2-(3-nitrophenyl)pyrimido[4,5-b]quinoline-4,5(3H,10H)-dione]	248	11.6	
CCCc1nc2c(c(=O)c3ccccc3n2C)c(=O)n1C1CCCC1 [Example 2.21, 3-cyclopentyl-10-methyl-2-propylpyrimido[4,5-b]quinoline-4,5(3H,10H)-dione]	214	7.6	
Cn1c2ccccc2c(=O)c2c(=O)n(C3CCCCCC3)c(-c3cccs3)nc21 [Example 2.22, 3-cycloheptyl-10-methyl-2-(thiophen-2-yl)pyrimido[4,5-b]quinoline-4,5(3H,10H)-dione]	197	11	
CCCc1nc2c(c(=O)c3ccccc3n2C)c(=O)n1C1CCCCCC1 [Example 2.23, 3-cycloheptyl-10-methyl-2-propylpyrimido[4,5-b]quinoline-4,5(3H,10H)-dione]	181	5	
CCCc1nc2c(c(=O)c3ccccc3n2C)c(=O)n1C1CCCCC1 [Example 2.24, 3-cyclohexyl-10-methyl-2-propylpyrimido[4,5-b]quinoline-4,5(3H,10H)-dione]	170	2.3	
CCCCCc1nc2c(c(=O)c3ccccc3n2C)c(=O)n1C1CCCCCC1 [Example 2.25, 3-cycloheptyl-10-methyl-2-pentylpyrimido[4,5-b]quinoline-4,5(3H,10H)-dione]	149	6.4	
Cn1c2ccccc2c(=O)c2c(=O)n(C3CCCCCC3)c(-c3ccccc3)nc21 [Example 2.26, 3-cycloheptyl-10-methyl-2-phenylpyrimido[4,5-b]quinoline-4,5(3H,10H)-dione]	97	11.1	
COc1ccc(-c2nc3c(c(=O)c4ccccc4n3C)c(=O)n2C2CCCCC2)cc1 [Example 2.27, 3-cyclohexyl-2-(4-methoxyphenyl)-10-methylpyrimido[4,5-b]quinoline-4,5(3H,10H)-dione]			97
Cn1c2ccccc2c(=O)c2c(=O)n(C3CCCC3)c(C3CCCCC3)nc21 [Example 2.28, 2-cyclohexyl-3-cyclopentyl-10-methylpyrimido[4,5-b]quinoline-4,5(3H,10H)-dione]	89	15.1	
CC(C)c1nc2c(c(=O)c3ccccc3n2C)c(=O)n1C1CCCCC1 [Example 2.29, 3-cyclohexyl-2-isopropyl-10-methylpyrimido[4,5-b]quinoline-4,5(3H,10H)-dione]	73	14.3	
